Assay results taken from US4672055A, “Erythromycin salt with mucosecretolytic and fluidizing activity and pharmaceutical compositions thereof” (priority 1984, dated 1987).
Values after ≈ are worked out from the molar mass of the structure shown. Read-outs that look alike come from different tables or passages of the source.

Assays:
bronchial mucus = assay: Fluidizing "in vivo" activity of bronchial mucus of bronchitic rabbits (viscosity); parameters: species or system rabbit (male); settings: oral, based on d,l-sobrerol taken equal to 100
Procedure: A method for studying viscosity of bronchial mucus of a bronchitic rabbit (R. Scuri et al-Il Farmaco, Ed.Pr. 36, 36-48, 1981).
Male rabbits weighing […], made bronchitic by sulphuric acid aerosol treatment according to the method of Cantarelli (G. Cantarelli et al--Il Farmaco, Ed. Pr. 34, 393-416, 1979), are treated with the test drugs and the bronchial mucus is collected by means of a tracheal cannula according to the procedure of R. Scuri (R. Scuri et al -Boll. Chim. Farm. 119, 181-7, 1980). Viscosity of the mucus as withdrawn is studied by using a Contraves RM16 micro viscosimeter and it is recorded by a Rheomat 15T -FC apparatus.
The activity of the compound of formula (I) of this invention is based on the one of d,1-sobrerol, taken equal to 100.

[1] = system: mucoproduction (bronchial secretion); assay: Bronchosecretagogue activity (mucoproduction) in the rabbit; type: in vivo, rabbit (male brown); settings: oral, percent increase of mucoproduction, period II vs I, based on d,l-trans-sobrerol taken equal to 100
Procedure: Method of mucoproduction in the rabbit according to Scuri R. et al, Boll Chim. Farm. 119, 181-7, 1980.
Male brown rabbits weighing 2.8-3.5 kg. are employed. To said animals, by surgical operation under anaesthesia, a T shaped tracheal cannula is applied, as described in the bibliographic reference mentioned above.
To the cannula, a container (a polyproylene 2 ml test tube) is applied for periodical collection of the bronchial secretion. The study of mucoproduction started at the fourth day after the operation, is divided into two 4 hour periods for collecting and measuring the mucus, and exactly from 8:30 to 12:30 (I) and from 12:30 to 16:30 (II).
The activity of each drug is tested by administering the same by oesophageal way (os) at the begining of the II period and by evaluating the percent increase of mucoproduction (weight of the mucus as collected) over the II period as compared to the I period.
The activity of the compound of formula (I), of the present invention, is based on the d,1-trans-sobrerol one, taken equal to 100.

[2] = Acute toxicity (LD50) in the mouse after single oral administration; type: in vivo, mouse (Swiss albine, female); settings: in vivo, mortality at 14th day, read-out: DL50 (LD50)
Procedure: (§1) Method for studying LD50 in the mouse after a single oral administration.
(§2) Groups of 10 Swiss albine, female, adult (g.20-22) mice, fasting from the evening preceding the test, are treated by oral way with various doses (4 to 5) of the test drugs, dissolved/suspended in 1% hydroxyethyl cellulose (volume administered : 20ml/kg). Thereafter, the animals are fed again. (Morini MIL fodder for mice)
(§3) The 50% lethal dose (LD50) is calculated by the method of Litchfield, J.T. and Wilcoxon, F. (J. Pharmacol. 96,99-113,1949) by the mortality data as obtained at 14th day after the drug treatment.

[3] = Pharmacokinetics: erythromycin in lungs after oral administration; type: in vivo; settings: Wistar rats, single oral 800 mg/kg vs erythromycin 585 mg/kg; lung homogenate
Procedure: (§4) Two groups of Wistar rats (180-270g.) are utilized. To the first group the compound of formula (I) of this invention, orally (transoesophageal intubation) at the dose of 800mg/kg, is administered, whilst to the second, again by the oral way, 585 mg/kg of erythromycin are administered.
(§5) Before treatment the rats were fasting for about 15 hours and were allowed to drink ad libitum. In both cases at 0.5 h; 1h;1.5 h; 2h; 3h; 4h; 6h from administration 5 rats/time are sacrificed. The blood as collected in test tubes containing sodium heparin is centrifuged and the plasma so obtained is utilized for the quantitative analysis of erythromycin by means of the micorbiologic standard method, using Staphylococcus aureus as a test organisum (P.G. Welling and W.A. Craig, J. Pharm. Sci. 67, 1057 (1978)).
From the same rats, in similar manner, the lungs are withdrawn and, after homogenizing the tissue, the erythromycin rates are evaluated.

Staph. aureus 6538 = assay: Antimicrobic in vitro activity, MIC; type: cell-based; settings: Mueller-Hinton medium
Procedure: (§6) Microbiologic "in vitro" tests. Tests carried out in order to evaluate the values of the Minimum Inhibiting Concentrations (MIC) are performed by the method of the substrate treated with scalar drugs concentrations, by the "multi-points inoculator" technique.
(§7) As test strains, bacteria from clinical isolation and from international culture collections are tested.
(§8) In the tables, the MIC values (mcg/ml), as obtained employing the Mueller-Hinton medium , are reported.
(§9) The MIC values in the tables refer to readings after 24 and 48 hours at 37° C.
(§10) The strains with 4 figures are of ATCC.

Staph. aureus 14154 = assay: Antimicrobic in vitro activity, MIC; type: cell-based; settings: Mueller-Hinton medium
Procedure: as §6, §7, §8, §9, §10

Strept. faecalis 8043 = assay: Antimicrobic in vitro activity, MIC; type: cell-based; settings: Mueller-Hinton medium
Procedure: as §6, §7, §8, §9, §10

Esch. coli 418 = assay: Antimicrobic in vitro activity, MIC; type: cell-based; settings: Mueller-Hinton medium
Procedure: as §6, §7, §8, §9

Proteus vulg. X 19 = assay: Antimicrobic in vitro activity, MIC; type: cell-based
Procedure: as §6, §7, §8, §9

[4] = system: Pseud. aerug. clin (strain 12); assay: Antimicrobic in vitro activity, MIC; type: cell-based; settings: Mueller-Hinton medium, 24 hours at 37° C.
Procedure: as §6, §7, §8, §9
(§11) clin = clinic isolation

Strept. faecalis clin = assay: Antimicrobic in vitro activity, MIC; type: cell-based; settings: Mueller-Hinton medium
Procedure: as §6, §7, §8, §9, §11

[5] = system: Pseud. aerug. clin (strain 10); assay: Antimicrobic in vitro activity, MIC; type: cell-based; settings: Mueller-Hinton medium, 24 hours at 37° C.
Procedure: as §6, §7, §8, §9, §11

Cand. albicans clin = assay: Antimicrobic in vitro activity, MIC; type: cell-based; settings: Mueller-Hinton medium
Procedure: as §6, §7, §8, §9, §11

Serr. marcescens clin = assay: Antimicrobic in vitro activity, MIC; type: cell-based
Procedure: as §6, §7, §8, §9, §11

[6] = system: Staph. epiderm clin (strain 4); assay: Antimicrobic in vitro activity, MIC; type: cell-based; settings: Mueller-Hinton medium
Procedure: as §6, §7, §8, §9, §11

[7] = system: Pseud. aerug. clin (strain 11); assay: Antimicrobic in vitro activity, MIC; type: cell-based; settings: Mueller-Hinton medium
Procedure: as §6, §7, §8, §9, §11

mouse = assay: Acute toxicity (LD50) in the mouse after single oral administration; type: in vivo, mouse (Swiss albine, female); settings: mortality at 14th day
Procedure: as §1, §2, §3

[8] = Pharmacokinetics: plasma levels of erythromycin after oral administration; type: in vivo, Wistar rats
Procedure: as §4, §5

[9] = Mueller-Hinton medium, 24 hours at 37° C.
[10] = Mueller-Hinton medium, 48 hours at 37° C.
[11] = 24 hours at 37° C., read-out: MIC
[12] = 48 hours at 37° C., read-out: MIC

For CC1=CC[C@@H](C(C)(C)O)C[C@@H]1O (relative stereo) [d,l-trans-sobrerol], the “Fluidizing in vivo activity (relative to d,l-sobrerol = 100)” value (bronchial mucus) was 100, the “Bronchosecretagogue activity (relative to d,l-trans-sobrerol = 100)” value [1] was 100 and the LD50 at 336 h [2] was 2340 mg/kg.

With “Erythromycinsalt of 5-(3-carboxy-1-oxopropoxy)-α, α 4-trimethyl-3-cyclohexene-1-methanol [CO/1311]” the “erythromycin rates in lungs vs erythromycin administration” value [3] was “significantly higher”, the MIC (Staph. aureus 6538; 24 hours at 37° C.) was 10 µg/mL and the MIC (Staph. aureus 6538; 48 hours at 37° C.) was 10 µg/mL. It also gave an MIC (Staph. aureus 14154; 24 hours at 37° C.) of 10 µg/mL, an MIC (Staph. aureus 14154; 48 hours at 37° C.) of 10 µg/mL and an MIC (Strept. faecalis 8043; 24 hours at 37° C.) of 0.3 µg/mL. The MIC (Strept. faecalis 8043; 48 hours at 37° C.) was 0.3 µg/mL, the MIC (Esch. coli 418; 24 hours at 37° C.) was 25 µg/mL and the MIC (Esch. coli 418; 48 hours at 37° C.) was 25 µg/mL. The MIC (Proteus vulg. X 19; [9]) was 2.5 µg/mL, the MIC (Proteus vulg. X 19; [10]) was 2.5 µg/mL and the “Fluidizing in vivo activity (relative to d,l-sobrerol = 100)” value (bronchial mucus) was 132. For the same molecule, the “Bronchosecretagogue activity (relative to d,l-trans-sobrerol = 100)” value [1] was 140, the MIC [4] was greater than 100 µg/mL and the MIC (Strept. faecalis clin; 24 hours at 37° C.) was 0.4 µg/mL. For the same molecule, the MIC (Strept. faecalis clin; 48 hours at 37° C.) was 0.4 µg/mL, the MIC [5] was greater than 100 µg/mL and the MIC (Cand. albicans clin; 24 hours at 37° C.) was 100 µg/mL. The MIC (Cand. albicans clin; 48 hours at 37° C.) was 100 µg/mL, the MIC (Serr. marcescens clin; [9]) was 50 µg/mL and the MIC (Serr. marcescens clin; [10]) was 50 µg/mL. For the same molecule, the MIC ([6]; 24 hours at 37° C.) was 10 µg/mL, the MIC ([6]; 48 hours at 37° C.) was 10 µg/mL and the MIC ([7]; 24 hours at 37° C.) was 100 µg/mL. The MIC ([7]; 48 hours at 37° C.) was 100 µg/mL, the “DL50 (LD50)” value (mouse) was 4322.3 mg/kg and the “plasmatic levels of erythromycin vs equidose erythromycin administration” value ([8]; Wistar rats, single oral 800 mg/kg vs erythromycin 585 mg/kg, 0.5-6 h, microbiologic assay) was “significantly higher”. For the same molecule, the “bioavailability of erythromycin vs the antibiotic administered as such” value ([8]; rat, in vivo) was “improved bioavailability”.

In the case of CC[C@H]1OC(=O)[C@H](C)[C@@H](O[C@H]2C[C@@](C)(OC)[C@@H](O)[C@H](C)O2)[C@H](C)[C@@H](O[C@@H]2O[C@H](C)C[C@H](N(C)C)[C@H]2O)[C@](C)(O)C[C@@H](C)C(=O)[C@H](C)[C@@H](O)[C@]1(C)O [erythromycin], the MIC (Staph. aureus 6538; Staphylococcus aureus, 6538, 24 hours at 37° C., read-out: MIC) is reported as 10 µg/mL (≈ 13.6 µM), the MIC (Staph. aureus 6538; Staphylococcus aureus, 6538, 48 hours at 37° C., read-out: MIC) is reported as 10 µg/mL (≈ 13.6 µM) and the MIC (Staph. aureus 14154; Staphylococcus aureus, 14154, 24 hours at 37° C., read-out: MIC) is reported as 10 µg/mL (≈ 13.6 µM). For the same molecule, the MIC (Staph. aureus 14154; Staphylococcus aureus, 14154, 48 hours at 37° C., read-out: MIC) was 10 µg/mL (≈ 13.6 µM), the MIC (Strept. faecalis 8043; Enterococcus faecalis, 8043, 24 hours at 37° C., read-out: MIC) was 0.3 µg/mL (≈ 0.409 µM) and the MIC (Strept. faecalis 8043; Enterococcus faecalis, 8043, 48 hours at 37° C., read-out: MIC) was 0.3 µg/mL (≈ 0.409 µM). The MIC (Esch. coli 418; Escherichia coli, 418, 24 hours at 37° C., read-out: MIC) was 25 µg/mL (≈ 34.1 µM), the MIC (Esch. coli 418; Escherichia coli, 418, 48 hours at 37° C., read-out: MIC) was 25 µg/mL (≈ 34.1 µM) and the MIC (Proteus vulg. X 19; 24 h) was 2.5 µg/mL (≈ 3.41 µM). The MIC (Proteus vulg. X 19; 48 h) was 2.5 µg/mL (≈ 3.41 µM), the “Fluidizing in vivo activity (relative to d,l-sobrerol = 100)” value (bronchial mucus) was 0 and the “Bronchosecretagogue activity (relative to d,l-trans-sobrerol = 100)” value [1] was 0. For the same molecule, the MIC ([4]; read-out: MIC) was greater than 100 µg/mL, the MIC (Strept. faecalis clin; Enterococcus faecalis, 24 hours at 37° C., read-out: MIC) was 0.3 µg/mL (≈ 0.409 µM) and the MIC (Strept. faecalis clin; Enterococcus faecalis, 48 hours at 37° C., read-out: MIC) was 0.3 µg/mL (≈ 0.409 µM). For the same molecule, the MIC ([5]; read-out: MIC) was greater than 100 µg/mL, the MIC (Cand. albicans clin; Candida albicans, 24 hours at 37° C., read-out: MIC) was 100 µg/mL (≈ 136 µM) and the MIC (Cand. albicans clin; Candida albicans, 48 hours at 37° C., read-out: MIC) was 100 µg/mL (≈ 136 µM). The MIC (Serr. marcescens clin; Serratia marcescens, 24 h) was 45 µg/mL (≈ 61.3 µM), the MIC (Serr. marcescens clin; Serratia marcescens, 48 h) was 50 µg/mL (≈ 68.1 µM) and the MIC [6, 11] was 10 µg/mL (≈ 13.6 µM). For the same molecule, the MIC [6, 12] was 10 µg/mL (≈ 13.6 µM), the MIC [7, 11] was 100 µg/mL (≈ 136 µM) and the MIC [7, 12] was 100 µg/mL (≈ 136 µM). It also gave an LD50 at 336 h [2] greater than 5000 mg/kg.
